Reference: US7829114B2, “Capsules containing aqueous fill compositions stabilized with derivatized cyclodextrin” (CyDex Pharmaceuticals, Inc., priority 2002, dated 2010)
Like-named read-outs stand apart in the source and are kept apart here. Each block holds one compound with its values, some of them ahead of it.

Experiments:
Assay type in all cases: physicochemical
[1] = Shell stability on exposure to aqueous fill composition (half-shell integrity test, H.S.I.T.); conditions: SAE-CD, PVP and water fill; hydrophilic fill-grade CARDINAL SGC
[2] = as above; conditions: for content in fill composition for an HSIT rating of at least 3: PVP and water fill, hydrophilic fill-grade BANNER SGC
Excerpt: Agitation continued until all the SAE-CD dissolved.

[3] = Hard shell capsule stability in aqueous SBE-CD solutions; conditions: for content in fill composition for an HSIT rating of at least 3: SAE-CD, PVP and water fill, CAPSUGEL HPMC hard shell capsule; for failure time: vcap, monitoring discontinued after fourteen days
Method: Two types of hard shell capsules obtained from […] were evaluated. A conventional hard gelatin capsule (HCAP) and a hard HPMC (hydroxypropyl methylcellulose) capsule (VCAP) were evaluated under identical conditions using aqueous solutions differing in the concentration of SBE-CD (sulfobutyl ether cyclodextrin).
In the absence of SBE or another shell-stabilizing material, these shell materials were unstable to erosion, dissolution, swelling and degradation by water. Under the conditions of the assay, SBE cyclodextrin was able to stabilize the VCAP shells for ≧14 days even at concentrations of ≧30% wt. of the fill composition. In this assay, monitoring was discontinued after fourteen days.

[4] = as above; conditions: SAE-CD, PVP and water fill; CAPSUGEL HGC
[5] = H.S.I.T. on starch capsule; conditions: for content in fill composition for an HSIT rating of at least 3: SAE-CD, PVP and water fill, VEGAGEL hard shell capsule
Excerpt: FIG. 3 depicts a chart of the relationship between concentration of SBE cyclodextrin and H.S.I.T. (HALF-SHELL integrity test) rating for HGC (hard gelatin capsule From […]), HGS (hard gelatin capsule from SHIONOGI), HPC (hard hydroxypropyl methylcellulose shell from […]), and HPS (hard hydroxypropyl methylcellulose shell from SHIONOGI), and SSS (soft starch shell […]). The stability obtained was dependent upon the composition of the capsule gel.
FIGS. 10a-10i depict ternary graphs correlating the concentration of SAE-CD, water and PVP in a fill composition to the H.S.I.T. rating of a soft shell capsule exposed to the fill composition. Aqueous fill solutions comprising differing amounts of PVP, SAE-CD and water were prepared. The stability tests were conducted as described below. The capsules described herein were used: SHIONOGI HGC (hard gelatin capsule) (FIG. 10A), […] HPMC hard shell capsule (FIG. 10b), SHIONOGI HPMC hard shell capsule (FIG. 10C), […] HGC (FIG. 10D), VEGAGEL hard shell capsule (FIG. 10E), hydrophilic fill-grade CARDINAL SGC (soft gelatin capsule) (FIG. 10f), lipophilic fill-grade CARDINAL SGC (FIG. 10g), hydrophilic fill-grade BANNER SGC (FIG. 10h), and lipophilic fill-grade BANNER SGC (FIG. 10i). No other shell-stabilizing material(s) was (were) included in the fill compositions evaluated. The results varied according to the capsule used. Stabilized aqueous fill composition-containing capsule formulations can be achieved with each capsule if one or more of the following fill compositions detailed below are used. • 1. […]

[6] = 40% wt. cyclodextrin derivative in water, HFB
[7] = 50% wt. cyclodextrin derivative in water, HFB
[8] = 55% wt. cyclodextrin derivative in water, HFB
[9] = 60% wt. cyclodextrin derivative in water, HFB

Compound: O [Water]
content in fill composition for an HSIT rating of at least 3 [1]: ≦54%
content in fill composition for a stabilized capsule formulation ([2]; SAE-CD, PEG and water fill, HFB): ≦48%
content in fill composition for an HSIT rating of at least 3 ([2]; SAE-CD): ≦54%
content in fill composition for an HSIT rating of at least 3 [3]: ≦70%
content in fill composition for an HSIT rating of at least 3 [4]: ≦36%
content in fill composition for an HSIT rating of at least 3 [5]: ≦64%

content in fill composition for a stabilized capsule formulation [2]: ≧12%
Increase in shell size [2, 6]: 2× × original
Observations [2, 6]: shape intact
Time for failure [2, 6]: 3 days
Increase in shell size [2, 7]: 2.5 × original
Observations [2, 7]: Slightly
Time for failure [2, 7]: 16 days
Increase in shell size [2, 8]: 2 × original
Observations [2, 8]: Deformed
Time for failure [2, 8]: 10 days
Increase in shell size [2, 9]: no change
Observations [2, 9]: No change
Time for failure [2, 9]: ≧21 days
failure time ([3]; 30% SBE solution): >14 days
failure time ([3]; 40% SBE solution): >14 days
failure time ([3]; 50% SBE solution): >14 days
failure time ([3]; 60% SBE solution): >14 days
time VCAP shells were stabilized ([3]; concentrations of ≧30% wt. of the fill composition): ≥ 14 days
stability provided to capsules ([5]; SBE concentration of about ≧30% wt., soft starch capsules, FIG. 3): at least a one-week stability
Compound: sulfobutyl ether cyclodextrin [SAE-CD]
content in fill composition for an HSIT rating of at least 3 [1]: ≧6%
content in fill composition for an HSIT rating of at least 3 ([2]; SAE-CD): ≧6%
content in fill composition for an HSIT rating of at least 3 [3]: ≧6%
content in fill composition for an HSIT rating of at least 3 [4]: ≧24%
content in fill composition for an HSIT rating of at least 3 [5]: ≧6%
